Measurements taken from US11352396B2, “Antimicrobial peptides and methods of using same” (Zoetis Services LLC, priority 2017, dated 2022).

How the values were obtained:
[1] = tested on: MSSP (Methicillin-Susceptible Staphylococcus pseudintermedius); assay: MIC against selected strains of MSSP; assay type: cell-based; parameters: key to MIC MSSP 84658 / MIC MSSP 86000 / MIC MSSP 71990 / MIC MSSP 72036 / MIC MSSP 78032: MIC in μM; key to MIC MSSP 86001 / MIC MSSP 72191 / MIC MSSP 76986 / MIC MSSP 77378: MIC in μM (first well with no visible growth); MIC MSSP 49051 / MIC MSSP 81923 / MIC MSSP 84250 / Effect on MSSP 86000 / Effect on MSSP 72036 / Effect on MSSP 78032: unit not given beside the values; details: for MIC MSSP 49051: strain 49051, Table 3; for MIC MSSP 71990: strain 71990, Table 3; for MIC MSSP 72036: strain 72036, Table 3; for MIC MSSP 72191: strain 72191, Table 3; for MIC MSSP 76986: strain 76986, Table 3; for MIC MSSP 77378: strain 77378, Table 3; for MIC MSSP 78032: strain 78032, Table 3; for MIC MSSP 81923: strain 81923, Table 3; for MIC MSSP 84250: strain 84250, Table 3; for MIC MSSP 84658: strain 84658, Table 3; for MIC MSSP 86000: strain 86000, Table 3; for MIC MSSP 86001: strain 86001, Table 3
Experimental: (§1) Peptides according to SEQ ID NOs as listed in Table 1 were prepared by a commercial manufacturer (CS Bio, Menlo Park, Calif.) using solid phase synthesis. Antimicrobial activity was assessed by determining the Minimal Inhibitory Concentration (MIC) against S. aureus and E. coli. Briefly, Microbroth MICs were performed using CLSI methodology (VET01-S2). For S. aureus and E. coli ATCC strains, TSA with 5% lysed horse blood agar was used for overnight culturing at 37° C. ambient air. A 0.5 mM stock for each peptide was made with cell culture water, 0.01% acetic acid and serially diluted and spotted (10 μL) in a 96-well plate for in assay dose titration concentration of 50 μM to 0.05 μM. 0.5 McFarland Standard of each strain was diluted 1:250 in Mueller-Hinton Broth (MHB). 90 μL of culture suspension was then added upon drug in the 96-well plate for overnight incubation for 18-20 hours. The MIC was determined visually at the first well of no visible growth at the corresponding concentration.
(§2) Antimicrobial activity of the peptides listed in Table 2 against different strains of MSSP (Methicillin-Susceptible Staphylococcus pseudintermedius) and MRSP (Methicillin-Resistant Staphylococcus pseudintermedius) was further assessed. The results are in Tables 3 and 4, respectively.

[2] = tested on: MRSP (Methicillin-Resistant Staphylococcus pseudintermedius); assay: MIC against selected strains of MRSP; assay type: cell-based; parameters: key to MIC MRSP 88493 / MIC MRSP 72035 / MIC MRSP 81926: MIC in μM; key to MIC MRSP 71994 / MIC MRSP 79882 / MIC MRSP 80729 / MIC MRSP 86002: MIC in μM (first well with no visible growth); key to MIC MRSP 72192 / MIC MRSP 76923 / MR 71994 / Mr 88493 / MR 72035 / MR 72192 / MR 76923 / MR 79882 / MR 80279 / MR 81926 / MR 86002 / MR 87665: MIC in μM (visual, first well with no growth); MIC MRSP 87655: unit not given beside the values; details: for MIC MRSP 71994: strain 71994, Table 4; for MIC MRSP 72035: strain 72035, Table 4; for MIC MRSP 72192: strain 72192, Table 4; for MIC MRSP 76923: strain 76923, Table 4; for MIC MRSP 79882: strain 79882, Table 4; for MIC MRSP 80729: strain 80729, Table 4; for MIC MRSP 81926: strain 81926, Table 4; for MIC MRSP 86002: strain 86002, Table 4; for MIC MRSP 87655: strain 87655, Table 4; for MIC MRSP 88493: strain 88493, Table 4
Experimental: as §1, §2

[3] = tested on: Canine-derived epithelial keratinocyte (CPEK) cells; assay type: cell-based
Experimental: Safety of the peptides listed in table 2 was determining by measuring cell viability. Canine-derived epithelial keratinocyte (CPEK) cells were propagated to determine cell viability in the presence of peptides. Cells were grown from a frozen stock in CnT-09-5 (with supplements) pre-warmed media in a T75 flask and incubated overnight at 37° C., 5% CO2. Cells were washed with phosphate buffer and replenished with pre-warmed CnT-05-9 media and repeated for several days until cells reached a density of 6.6×10^4 cells/mL. Cells were then transferred to a 384 well plate, allowed to settle and dosed with peptides and melittin control peptide (50 μM to 0.05 μM) and incubated overnight at 37° C., 5% CO2. 0.1% TritonX100 as (HPE) and phosphate buffer alone as (ZPE) were added to the plates to calculate percent effect once the assay was terminated with 10 μL CELLTITER-GLO® assay reagents for a luminescent readout.

[4] = tested on: cRBC; assay type: cell-based, canine
Experimental: SEQ ID NO: 1 was selected for further research. Toxicity of SEQ ID NO: 1 to eukaryotic blood cells was compared to that of tachyplesin (SEQ ID NO: 13). A standard, well referenced red blood cell hemolysis assay was employed against multiple species to test the lysis potential of the peptides. Red blood cells (RBCs) were prepared and isolated by several centrifuge and wash steps to remove the plasma fraction. A dose titration (50 μM to 0.05 μM) of test peptides and control peptide melittin were spotted from 50 mM stocks in a 384 well plate. Prepared RBCs were incubated with peptide for one hour at 37° C. Percent hemolysis was measured by optical density at 405 nm and utilizing 1% TritonX100 as hundred percent effect (HPE) and phosphate buffer alone as zero percent effect (ZPE).

| Substance | MIC MSSP 49051 [1] | MIC MSSP 71990 [1] | MIC MSSP 72036 [1] | MIC MSSP 72191 [1] | MIC MSSP 76986 [1] | MIC MSSP 77378 [1] | MIC MSSP 78032 [1] | MIC MSSP 81923 [1] | MIC MSSP 84250 [1] | MIC MSSP 84658 [1] | MIC MSSP 86000 [1] | MIC MSSP 86001 [1] | MIC MRSP 71994 [2] | MIC MRSP 72035 [2] | MIC MRSP 72192 [2] | MIC MRSP 76923 [2] | MIC MRSP 79882 [2] | MIC MRSP 80729 [2] | MIC MRSP 81926 [2] | MIC MRSP 86002 [2] | also measured |
| --- | --- | --- | --- | --- | --- | --- | --- | --- | --- | --- | --- | --- | --- | --- | --- | --- | --- | --- | --- | --- | --- |
| 5 (KWCFYVCYRGICYRRCRD; Artificial Antimicrobial peptide) [compound 5] | 1.6 | 1.6 | 1.6 | 1.6 | 1.6 | 0.8 | 1.6 | 1.6 | 1.6 | 1.6 | 1.6 | 1.6 | 1.6 | 1.6 | 1.6 | 1.6 | 1.6 | 1.6 | 1.6 | 1.6 | MIC MRSP 87655 [2]: 1.6; MIC MRSP 88493 [2]: 1.6; CPEK (50 μM) [3]: 28.6; cRBC (50 μM) [4]: 3.1 |
| 1 (KWCFRVCYRGICYRRCRD; Antimicrobial peptide) [compound 1] | 1.6 | 1.6 | 1.6 | 1.6 | 1.6 | 1.6 | 1.6 | 1.6 | 1.6 | 1.6 | 1.6 | 1.6 | 1.6 | 1.6 | 1.6 | 1.6 | 1.6 | 1.6 | 1.6 | 1.6 | MIC MRSP 87655 [2]: 1.6; MIC MRSP 88493 [2]: 1.6; CPEK (50 μM) [3]: 21.5; cRBC (50 μM) [4]: 20.5 |
| 2 (RWCFRVCYRGICYRRCRD; Artificial antimicrobial peptide) [compound 2] | 1.6 | 1.6 | 1.6 | 1.6 | 1.6 | 1.6 | 1.6 | 3.1 | 1.6 | 3.1 | 1.6 | 1.6 | 1.6 | 1.6 | 1.6 | 1.6 | 0.8 | 1.6 | 1.6 | 1.6 | MIC MRSP 87655 [2]: 1.6; MIC MRSP 88493 [2]: 1.6; CPEK (50 μM) [3]: −1.7; cRBC (50 μM) [4]: 64.0 |
| 96 (KWCFRVCYGRICYRRCRD; Artificial Antimicrobial peptide) [compound 96] | 1.6 | 1.6 | 1.6 | 1.6 | 1.6 | 0.8 | 1.6 | 1.6 | 1.6 | 1.6 | 1.6 | 1.6 | 1.6 | 1.6 | 1.6 | 1.6 | 1.6 | 1.6 | 1.6 | 1.6 | MIC MRSP 87655 [2]: 1.6; MIC MRSP 88493 [2]: 1.6; CPEK (50 μM) [3]: 51.9; cRBC (50 μM) [4]: 101.4 |
| 8 (KWCFRVCYRGACYRRCRD; Artificial Antimicrobial peptide) [compound 8] | 1.6 | 1.6 | 1.6 | 1.6 | 1.6 | 0.8 | 1.6 | 3.1 | 1.6 | 1.6 | 1.6 | 1.6 | 1.6 | 1.6 | 1.6 | 1.6 | 1.6 | 1.6 | 1.6 | 1.6 | MIC MRSP 87655 [2]: 1.6; MIC MRSP 88493 [2]: 1.6; CPEK (50 μM) [3]: 24.6; cRBC (50 μM) [4]: 30.2 |
| 11 (KWCFRVCYRGICYRRCND; Artificial Antimicrobial peptide) [compound 11] | 0.8 | 1.6 | 0.8 | 0.8 | 0.8 | 0.4 | 0.8 | 1.6 | 0.8 | 0.8 | 0.4 | 0.8 | 1.6 | 1.6 | 0.8 | 0.8 | 0.8 | 0.8 | 0.8 | 0.8 | MIC MRSP 87655 [2]: 0.8; MIC MRSP 88493 [2]: 1.6; CPEK (50 μM) [3]: 22.0; cRBC (50 μM) [4]: 57.8 |
| 10 (KWCFRVCYRGICYHRCRD; Artificial Antimicrobial peptide) [compound 10] | 1.6 | 1.6 | 1.6 | 1.6 | 1.6 | 0.8 | 1.6 | 1.6 | 1.6 | 1.6 | 1.6 | 1.6 | 1.6 | 1.6 | 1.6 | 1.6 | 0.8 | 1.6 | 1.6 | 1.6 | MIC MRSP 87655 [2]: 1.6; MIC MRSP 88493 [2]: 1.6; CPEK (50 μM) [3]: 31.5; cRBC (50 μM) [4]: 101.1 |
